The results in this text go back to ChEMBL document CHEMBL3994583, “Discovery of 4-[(5-arylidene-4-oxothiazolidin-3-yl)methyl]benzoic acid derivatives active as novel potent allosteric inhibitors of protein tyrosine phosphatase 1B: In silico studies and in vitro evaluation as insulinomimetic and anti-inflammatory agents” (Eur J Med Chem, 2017).

In data set [1] the test system is C2C12. As to the kind of experiment: Cytotoxicity against mouse C2C12 cells assessed as reduction in cell viability after 24 hrs by MTT assay. The data set is classed as cell-based. The conditions noted are these: c2c12, 24 h.
In data set [2] the target is T1, Tyrosine-protein phosphatase non-receptor type 1 (Homo sapiens, UniProt P18031).
T1 sequence (P18031 whole entry): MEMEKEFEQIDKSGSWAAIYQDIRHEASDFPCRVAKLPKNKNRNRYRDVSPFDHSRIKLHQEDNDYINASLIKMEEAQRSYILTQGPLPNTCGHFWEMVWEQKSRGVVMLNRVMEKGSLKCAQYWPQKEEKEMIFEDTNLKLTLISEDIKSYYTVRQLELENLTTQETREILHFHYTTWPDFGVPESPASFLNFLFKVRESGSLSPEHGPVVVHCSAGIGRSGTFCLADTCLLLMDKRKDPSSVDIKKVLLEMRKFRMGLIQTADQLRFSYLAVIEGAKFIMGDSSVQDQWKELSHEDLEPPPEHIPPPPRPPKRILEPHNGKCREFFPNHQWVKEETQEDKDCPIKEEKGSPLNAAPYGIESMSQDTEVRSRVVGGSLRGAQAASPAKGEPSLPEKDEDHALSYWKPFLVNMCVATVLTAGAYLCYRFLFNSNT
The data set can be described thus: Inhibition of full length recombinant human PTP1B using pNPP as substrate by spectrophotometric method.

In data set [3] the test system is NCTC-2544. The data set can be described thus: Cytotoxicity against human IFN-gamma and histamine-stimulated NCTC-2544 cells assessed as reduction in cell viability at 10 uM by MTT assay. In kind it is cell-based. Conditions: nctc-2544, 10 µM.
Data set [4] has as its target T2, Tyrosine-protein phosphatase non-receptor type 1 (Homo sapiens) (UniProt P18031).
T2 sequence (whole entry): T1 sequence (P18031 whole entry)
As to the kind of experiment: Inhibition of PTP1B in human HepG2 cells assessed as increase in phosphorylation of Akt at Ser473 residue at 50 uM after 30 mins by Western blot method. In kind it is cell-based.

The target of data set [5] is T2, Tyrosine-protein phosphatase non-receptor type 1 (Homo sapiens). The data set can be described thus: Irreversible inhibition of full length recombinant human PTP1B assessed as recovery of enzyme activity up to 50 uM using pNPP as substrate preincubated for 1 hr followed by substrate addition by spectrophotometric method. On the set-up: scale not given: the % may be the effect or the level left.

Data set [6] deals with C2C12. As to the kind of experiment: Insulinomimetic effect in mouse C2C12 cells assessed as induction of [3H]2-deoxyglucose uptake at 50 uM preincubated for 30 mins followed by [3H]2-deoxyglucose addition measured after 15 mins by liquid scintillation counting method. The data set is classed as functional, cell-based.
Another data set concerns HepG2. The data set can be described thus: Cytotoxicity against human HepG2 cells assessed as reduction in cell viability at 25 uM after 24 hrs by MTT assay. The data set is classed as cell-based. The conditions noted are these: hepg2, 24 h.
For data set [7], the target named is T3, Tyrosine-protein phosphatase non-receptor type 1 (Mus musculus) (UniProt P35821).
T3 sequence (whole entry): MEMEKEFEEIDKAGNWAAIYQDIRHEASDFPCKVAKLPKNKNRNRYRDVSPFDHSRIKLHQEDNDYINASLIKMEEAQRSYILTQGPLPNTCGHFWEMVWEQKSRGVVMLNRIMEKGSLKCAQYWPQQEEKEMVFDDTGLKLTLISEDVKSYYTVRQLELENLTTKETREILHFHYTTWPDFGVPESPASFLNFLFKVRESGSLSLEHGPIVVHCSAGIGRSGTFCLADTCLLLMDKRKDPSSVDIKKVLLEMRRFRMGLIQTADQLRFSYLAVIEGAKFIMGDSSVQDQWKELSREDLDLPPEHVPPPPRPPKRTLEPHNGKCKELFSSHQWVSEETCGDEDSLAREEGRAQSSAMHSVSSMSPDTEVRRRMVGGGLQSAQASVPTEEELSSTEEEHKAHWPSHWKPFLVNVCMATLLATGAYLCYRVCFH
As to the kind of experiment: Inhibition of PTP1B in mouse C2C12 cells assessed as increase in phosphorylation of IRbeta at Tyr1162/1163 residues at 50 uM after 30 mins by Western blot method. The data set is classed as cell-based.

For data set [8], the system named is NCTC-2544. As to the kind of experiment: Anti-inflammatory activity in IFN-gamma and histamine-stimulated human NCTC-2544 cells assessed as reduction in COX-2 protein expression by Western blot method. The data set is classed as functional, cell-based.
The target of data set [9] is T1, Tyrosine-protein phosphatase non-receptor type 1. As to the kind of experiment: Competitive inhibition of full length recombinant human PTP1B assessed as enzyme-inhibitor complex using pNPP as substrate by double reciprocal plot method.
In data set [10] the test system is NCTC-2544. As to the kind of experiment: Anti-inflammatory activity in IFN-gamma and histamine-stimulated human NCTC-2544 cells assessed as reduction in ICAM-1 protein expression by Western blot method. The data set is classed as functional, cell-based.
For data set [11], the target named is T3, Tyrosine-protein phosphatase non-receptor type 1 (Mus musculus). As to the kind of experiment: Inhibition of PTP1B in mouse C2C12 cells assessed as increase in phosphorylation of Akt at Ser473 residue at 50 uM after 30 mins by Western blot method. In kind it is cell-based.
For data set [12], the system named is NCTC-2544. As to the kind of experiment: Anti-inflammatory activity in IFN-gamma and histamine-stimulated human NCTC-2544 cells assessed as reduction in iNOS protein expression by Western blot method. The data set is classed as functional, cell-based.
In data set [13] the target is T2, Tyrosine-protein phosphatase non-receptor type 1 (Homo sapiens). The data set can be described thus: Inhibition of PTP1B in human HepG2 cells assessed as increase in phosphorylation of IRbeta at Tyr1162/1163 residues at 50 uM after 30 mins by Western blot method. In kind it is cell-based.
Data set [14] concerns NCTC-2544. As to the kind of experiment: Cytotoxicity against human NCTC-2544 cells assessed as reduction in cell viability at 10 uM by MTT assay. The data set is classed as cell-based. Conditions: nctc-2544, 10 µM.

Activity calls are given as the source filed them. No cut-off for these calls is given here.

In the case of `O=C(O)c1ccc(CN2C(=O)/C(=C/c3cccc(Oc4ccccc4)c3)S/C2=N\c2ccc(F)cc2)cc1`, the Activity result in the data set with C2C12 [1] was “Non-Toxic”; with NCTC-2544 [3], “Non-Toxic”; in data set [5], 10 to 50%; with HepG2, “Non-Toxic”; in the data set with NCTC-2544 [14] it was “Non-Toxic”. Besides, the IC50 in [2] was determined as 10 µM. Further, the inhibition entry in data set [4], in [7], in [11] and in data set [13] was “Active” each time. Besides, the result with C2C12 [6], in the data set with NCTC-2544 [8] and with NCTC-2544 [12] was Active. Also, the Ki in data set [9] was found to be 4.4 µM. Also, the outcome in the data set with NCTC-2544 [10] was inactive.
